From US20170088520A1, “DEUBIQUITINASE INHIBITORS” (PharmAkea, Inc., priority 2014, published 2017)

Assays:
[1] = system: Mcl-1 expression in cells (NCI-H929, Z138, MM.1S, A-375); assay: Analysis of Mcl-1 expression by Western blotting; type: cell-based; settings: compound tested at 5 μM; Western blot
In short: (§1)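 NCI-H929, Z138, MM.1S and A-375 cells were treated with compounds at 5 μM, and lysates were Western blotted with anti-Mcl-1 and anti-PARP antibodies, quantified by infrared fluorescence. Activity is a significant drop in Mcl-1 and the appearance of cleaved PARP, each relative to vehicle-treated cells.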

[2] = system: MM.1S myeloma tumor cells; assay: In vivo tumor growth assay (xenograft model); settings: SCID Beige mice injected with MM.1S myeloma tumor cells; 15 mpk three times per week
Method: Example B-3: In Vivo Tumor Growth Assay
A xenograft model is used to test efficacy of compounds in inhibiting tumor growth. Briefly, 1×10^6-2×10^7 tumor cell suspensions (Z138, A375, MM.1S, VCaP) are injected subcutaneously into the flank regions of mice (SCID, NSG, nude) in an equal volume of matrigel. Tumor volumes are measured using calipers and when the tumor volumes are ˜100 mm^3, test compound is administered every 1-3 days by oral gavage or by injection (intraperitoneal, intravenous, subcutaneous) until tumor volumes of the vehicle treated animals are ˜1000-2000 mm^3. Inhibition of primary tumor growth is evident as a significant decrease in tumor volume relative to the vehicle treated mice.
Following the above protocol using SCID Beige mice injected with MM.1S myeloma tumor cells and dosing with Compound 74 at 15 mpk three times per week, an approximately 50% reduction in tumor volume was observed

[3] = biological target: T1, DUB activity in cells (NCI-H929, Z138, MM.1S, A375) (Homo sapiens, UniProt Q93008); assay: HA-Ubiquitin-Vinylsulfone (HA-Ub-VS) cell labeling assay; type: cell-based; settings: compound tested at 5 μM; HA-Ub-VS labeling of USP9x in cells
T1 construct: endogenous in cells; host or cells: NCI-H929, Z138, MM.1S, A375
T1 sequence (Q93008 whole entry): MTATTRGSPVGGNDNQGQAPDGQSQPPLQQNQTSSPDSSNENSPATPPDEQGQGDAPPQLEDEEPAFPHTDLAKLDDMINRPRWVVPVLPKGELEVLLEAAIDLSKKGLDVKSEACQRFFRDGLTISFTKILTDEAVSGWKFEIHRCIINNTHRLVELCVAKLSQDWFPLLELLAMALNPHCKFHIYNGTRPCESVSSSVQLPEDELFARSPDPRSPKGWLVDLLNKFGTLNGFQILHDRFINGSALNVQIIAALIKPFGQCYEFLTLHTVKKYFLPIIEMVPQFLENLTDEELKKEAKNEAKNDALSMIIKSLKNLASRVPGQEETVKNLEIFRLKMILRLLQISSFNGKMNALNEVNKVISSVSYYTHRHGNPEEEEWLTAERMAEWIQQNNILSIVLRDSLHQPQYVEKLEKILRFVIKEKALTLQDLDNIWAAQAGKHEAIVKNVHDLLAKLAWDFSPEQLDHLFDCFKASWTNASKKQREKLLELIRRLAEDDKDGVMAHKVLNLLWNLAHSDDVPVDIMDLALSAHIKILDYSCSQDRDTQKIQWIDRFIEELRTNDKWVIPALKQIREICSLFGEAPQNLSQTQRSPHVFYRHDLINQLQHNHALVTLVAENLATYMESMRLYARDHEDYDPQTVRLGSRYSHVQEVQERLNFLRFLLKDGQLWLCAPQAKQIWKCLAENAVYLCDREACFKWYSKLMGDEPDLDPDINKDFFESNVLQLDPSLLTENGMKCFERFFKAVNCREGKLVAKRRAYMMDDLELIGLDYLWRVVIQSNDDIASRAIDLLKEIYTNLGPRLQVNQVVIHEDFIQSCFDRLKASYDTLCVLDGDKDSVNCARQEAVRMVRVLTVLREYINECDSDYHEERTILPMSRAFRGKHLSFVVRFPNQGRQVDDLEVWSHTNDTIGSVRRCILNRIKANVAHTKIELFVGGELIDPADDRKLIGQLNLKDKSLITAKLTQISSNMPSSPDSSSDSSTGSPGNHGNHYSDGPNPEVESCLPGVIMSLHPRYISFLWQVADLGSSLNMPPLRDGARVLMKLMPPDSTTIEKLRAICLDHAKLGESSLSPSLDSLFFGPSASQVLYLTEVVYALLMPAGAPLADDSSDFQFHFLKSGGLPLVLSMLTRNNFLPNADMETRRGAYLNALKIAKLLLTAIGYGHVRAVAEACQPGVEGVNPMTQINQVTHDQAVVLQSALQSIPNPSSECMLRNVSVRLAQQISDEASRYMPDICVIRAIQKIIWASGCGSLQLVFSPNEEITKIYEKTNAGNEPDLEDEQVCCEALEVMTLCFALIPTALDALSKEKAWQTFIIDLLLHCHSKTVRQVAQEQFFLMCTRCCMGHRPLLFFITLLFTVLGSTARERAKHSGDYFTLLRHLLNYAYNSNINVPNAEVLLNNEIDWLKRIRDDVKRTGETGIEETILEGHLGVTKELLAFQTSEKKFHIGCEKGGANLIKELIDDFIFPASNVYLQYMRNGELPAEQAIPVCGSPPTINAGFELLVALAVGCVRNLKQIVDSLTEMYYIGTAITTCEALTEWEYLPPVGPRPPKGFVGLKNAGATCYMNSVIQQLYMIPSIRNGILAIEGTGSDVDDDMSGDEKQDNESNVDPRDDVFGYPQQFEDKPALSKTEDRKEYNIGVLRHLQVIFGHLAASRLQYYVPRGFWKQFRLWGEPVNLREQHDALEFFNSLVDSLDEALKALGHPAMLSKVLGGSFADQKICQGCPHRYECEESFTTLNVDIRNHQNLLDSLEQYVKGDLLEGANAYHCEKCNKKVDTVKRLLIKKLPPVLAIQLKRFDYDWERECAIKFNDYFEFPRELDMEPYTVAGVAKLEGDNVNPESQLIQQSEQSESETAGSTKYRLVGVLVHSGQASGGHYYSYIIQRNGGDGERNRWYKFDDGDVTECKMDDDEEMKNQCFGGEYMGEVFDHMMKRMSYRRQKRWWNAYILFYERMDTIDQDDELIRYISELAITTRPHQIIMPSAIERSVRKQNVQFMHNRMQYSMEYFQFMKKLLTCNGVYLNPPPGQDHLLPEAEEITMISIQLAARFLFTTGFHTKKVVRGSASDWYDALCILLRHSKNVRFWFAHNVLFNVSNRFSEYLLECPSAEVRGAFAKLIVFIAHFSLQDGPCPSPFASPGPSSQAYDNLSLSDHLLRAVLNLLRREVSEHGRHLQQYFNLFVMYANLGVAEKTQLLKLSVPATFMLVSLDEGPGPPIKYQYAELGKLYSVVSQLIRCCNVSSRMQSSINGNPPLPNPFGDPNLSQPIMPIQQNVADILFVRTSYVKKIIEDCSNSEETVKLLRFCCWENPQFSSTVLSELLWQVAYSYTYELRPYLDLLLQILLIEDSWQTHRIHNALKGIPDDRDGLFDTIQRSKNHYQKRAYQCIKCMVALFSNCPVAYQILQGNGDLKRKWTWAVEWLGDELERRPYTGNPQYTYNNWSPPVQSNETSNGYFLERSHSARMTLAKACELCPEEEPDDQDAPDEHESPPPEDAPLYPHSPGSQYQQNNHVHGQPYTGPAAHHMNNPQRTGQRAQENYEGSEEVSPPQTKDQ
In short: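 NCI-H929, Z138, MM.1S or A375 cells (1–2×10^6) treated 2–6 h at 37 °C with compound in 0.5% DMSO, here 5 μM. Lysates labeled with HA-Ub-VS for 15–60 min at 37 °C. Labeled DUBs resolved by SDS-PAGE and quantified by anti-HA and anti-β-actin immunoblot with infrared detection.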

[4] = system: PARP cleavage in cells (NCI-H929, Z138, MM.1S, A-375); assay: Analysis of PARP cleavage by Western blotting; type: cell-based; settings: compound tested at 5 μM; Western blot
In short: as §1

Structure (SMILES) | inhibition at 5 µM [3] [%] | inhibition at 5 µM [1] [%] | reduction in tumor volume [2] | PARP cleavage % Inhibition [4]
N#C/C(=C\c1cccc(Br)n1)C(=O)NC1(c2ccc(-c3cccc(C(=O)O)c3)cc2)CCCC1 [Compound 74, (E)-4′-(1-(3-(6-bromopyridin-2-yl)-2-cyanoacrylamido)cyclopentyl)-[1,1′-biphenyl]-3-carboxylic acid] | 50 to 75 | 50 to 75 | approximately 50% | A (A is ≧75% inhibition)
N#C/C(=C\c1cccc(Br)n1)C(=O)NC1(c2ccc(-c3ccc(CC(=O)O)cc3)cc2)CCCC1 [Compound 90, (E)-2-(4′-(1-(3-(6-bromopyridin-2-yl)-2-cyanoacrylamido)cyclopentyl)-[1,1′-biphenyl]-4-yl)acetic acid] | < 25 | 25 to 50 |  | D (D is <25% inhibition)
N#C/C(=C\c1cccc(Br)n1)C(=O)NC1(c2ccc(-c3ccc(C(=O)O)cc3)cc2)CCCC1 [Compound 91, (E)-4′-(1-(3-(6-bromopyridin-2-yl)-2-cyanoacrylamido)cyclopentyl)-[1,1′-biphenyl]-4-carboxylic acid] | 25 to 50 | ≥ 75 |  | A (A is ≧75% inhibition)
N#C/C(=C\c1cccc(C2CC2)n1)C(=O)NC1(c2ccc(-c3ccc(C(=O)O)cc3)cc2)CCCC1 [Compound 92, (E)-4′-(1-(2-cyano-3-(6-cyclopropylpyridin-2-yl)acrylamido)cyclopentyl)-[1,1′-biphenyl]-4-carboxylic acid] | 25 to 50 | ≥ 75 |  | A (A is ≧75% inhibition)
N#C/C(=C\c1cccc(C2CC2)n1)C(=O)NC1(c2ccc(-c3ccc(CC(=O)O)cc3)cc2)CCCC1 [Compound 93, (E)-2-(4′-(1-(2-cyano-3-(6-cyclopropylpyridin-2-yl)acrylamido)cyclopentyl)-[1,1′-biphenyl]-4-yl)acetic acid] | 25 to 50 | ≥ 75 |  | A (A is ≧75% inhibition)
N#C/C(=C\c1cccc(Br)n1)C(=O)NC1(c2ccc(-c3cccc(C(=O)NS(=O)(=O)c4ccccc4)c3)cc2)CCCC1 [Compound 94, (E)-4′-(1-(3-(6-bromopyridin-2-yl)-2-cyanoacrylamido)cyclopentyl)-N-(phenylsulfonyl)-[1,1′-biphenyl]-3-carboxamide] | < 25 | 25 to 50 |  | A (A is ≧75% inhibition)
N#C/C(=C\c1cccc(Br)n1)C(=O)NC1(c2ccc(-c3ccc4[nH]ncc4c3)cc2)CCCC1 [Compound 95, (E)-N-(1-(4-(1H-indazol-5-yl)phenyl)cyclopentyl)-3-(6-bromopyridin-2-yl)-2-cyanoacrylamide] | < 25 | < 25 |  | D (D is <25% inhibition)

More lines, main results first:

inhibition at 5 µM [3] [%] | Structure (SMILES) | inhibition at 5 µM [1] [%] | reduction in tumor volume [2] | PARP cleavage % Inhibition [4]
50 to 75 | N#C/C(=C\c1cccc(Br)n1)C(=O)NC1(c2ccc(-c3ccc4[nH]ccc4c3)cc2)CCCC1 [Compound 96, (E)-N-(1-(4-(1H-indol-5-yl)phenyl)cyclopentyl)-3-(6-bromopyridin-2-yl)-2-cyanoacrylamide] | 50 to 75 |  | A (A is ≧75% inhibition)
25 to 50 | CCOC(=O)CN1CCc2ccc(-c3cccc(/C=C(\C#N)C(=O)NC4(c5ccccc5)CCCC4)n3)cc2C1 [Compound 97, (E)-ethyl 2-(7-(6-(2-cyano-3-oxo-3-((1-phenylcyclopentyl)amino)prop-1-en-1-yl)pyridin-2-yl)-3,4-dihydroisoquinolin-2(1H)-yl)acetate] | < 25 |  | B (B is 50% to 75% inhibition)
< 25 | Cc1ccc(-c2ccc(C3(NC(=O)/C(C#N)=C/c4cccc(Br)n4)CCCC3)cc2)cc1CC(=O)O [Compound 98, (E)-2-(4′-(1-(3-(6-bromopyridin-2-yl)-2-cyanoacrylamido)cyclopentyl)-4-methyl-[1,1′-biphenyl]-3-yl)acetic acid] | < 25 |  | D (D is <25% inhibition)
25 to 50 | N#C/C(=C\c1cccc(C2CC2)n1)C(=O)NC1(c2ccc(-c3ccc4[nH]ccc4c3)cc2)CCCC1 [Compound 99, (E)-N-(1-(4-(1H-indol-5-yl)phenyl)cyclopentyl)-2-cyano-3-(6-cyclopropylpyridin-2-yl)acrylamide] | < 25 |  | C (C is 25% to 50% inhibition)
